The results in this text go back to PMC10895678 (Journal of Medicinal Chemistry, 2024).

For one experiment, the system named is MDR-M. tb 08/00483E. Briefly: microbe, parasite or virus in culture. The class given is cell-based, Mycobacterium tuberculosis. The following applies: for MIC99: Mycobacterium tuberculosis, read-out: MDR-M. tb 08/00483E MIC99.
In experiment [1] the test system is M. smegmatis and M. bovis BCG.

Values after ≈ are worked out from the molar mass of the structure shown.

With `CNCC1CC(c2ccc(OC(F)(F)F)cc2)N1Cc1ccccc1OC(F)(F)F` (centres unmarked) [BGAz-005], in the experiment with MDR-M. tb 08/00483E, the “fold lower MIC in MDR isolate 08/00483E in comparison to the drug-sensitive isolate” value turned out to be 8 fold and the MIC99 stood at 2.8 µM (≈ 1.22 µg/mL).

Regarding `Brc1cc(Br)cc(C2CC(CN3CCCC3)N2Cc2ccccc2Br)c1` (centres unmarked) [BGAz-004], the MIC99 in the experiment with MDR-M. tb 08/00483E was 15.6 µM (≈ 8.47 µg/mL).

`FC(F)(F)Oc1ccc(C2CC(CN3CCCC3)N2Cc2ccccc2OC(F)(F)F)cc1` (centres unmarked) [BGAz-002]: in the experiment on MDR-M. tb 08/00483E, the MIC99 was found to be 33.5 µM (≈ 15.9 µg/mL). Moreover, the resistant colonies formed result in experiment [1] was “three resistant colonies”.
